Laboratory results from BindingDB's records for doi:10.1021/acs.jmedchem.6b00948 (Fimbrion Therapeutics, 2016).

Assay: Inhibition of Escherichia coli UTI89 FimH-mediated biofilm formation after 48 hrs by crystal violet staining-based assay

Compound	IC50
Cc1cc(-c2ccc3cc[nH]c(=O)c3c2)ccc1O[C@H]1O[C@H](CO)[C@@H](O)[C@H](O)[C@@H]1O	0.13 µM
Cc1cc(-c2cccc3cnccc23)ccc1O[C@H]1O[C@H](CO)[C@@H](O)[C@H](O)[C@@H]1O	0.14 µM
Cc1cc(-c2ccc3c(c2)C(=O)NCC3)ccc1O[C@H]1O[C@H](CO)[C@@H](O)[C@H](O)[C@@H]1O	0.25 µM
CNC(=O)c1cccc(-c2ccc([C@@H](O)[C@H]3O[C@H](CO)[C@@H](O)[C@H](O)[C@@H]3O)cc2)c1	0.9 µM
Cc1cc(-c2ccc3ccnc(N)c3c2)ccc1O[C@H]1O[C@H](CO)[C@@H](O)[C@H](O)[C@@H]1O	0.34 µM
CNC(=O)c1cccc(-c2ccc([C@H](O)[C@H]3O[C@H](CO)[C@@H](O)[C@H](O)[C@@H]3O)c(C)c2)c1	11 µM
CNC(=O)c1cccc(-c2ccc(O[C@H]3O[C@H](CO)[C@@H](O)[C@H](O)[C@@H]3O)cc2)c1	1.35 µM
Cc1cc(-c2cccc3cnccc23)ccc1[C@@H](O)[C@H]1O[C@H](CO)[C@@H](O)[C@H](O)[C@@H]1O	0.6 µM
CNC(=O)c1cccc(-c2ccc([C@H](O)[C@H]3O[C@H](CO)[C@@H](O)[C@H](O)[C@@H]3O)cc2)c1	38 µM
CNC(=O)c1cccc(-c2ccc(O[C@H]3O[C@H](CO)[C@@H](O)[C@H](O)[C@@H]3O)c(C)c2)c1	0.15 µM

These reach a lower IC50. Values come first.

IC50	Compound
0.08 µM	CNC(=O)c1cccc(-c2ccc([C@@H](O)[C@H]3O[C@H](CO)[C@@H](O)[C@H](O)[C@@H]3O)c(C)c2)c1
0.04 µM	Cc1cc(-c2ccc3c(c2)C(=O)NCC3)ccc1[C@@H](O)[C@H]1O[C@H](CO)[C@@H](O)[C@H](O)[C@@H]1O
0.04 µM	Cc1cc(-c2ccc3ccnc(N)c3c2)ccc1[C@@H](O)[C@H]1O[C@H](CO)[C@@H](O)[C@H](O)[C@@H]1O
0.03 µM	Cc1cc(-c2ccc3cc[nH]c(=O)c3c2)ccc1[C@@H](O)[C@H]1O[C@H](CO)[C@@H](O)[C@H](O)[C@@H]1O
